Experimental data reported in ChEMBL document CHEMBL2074353, “Reversal of the human and murine multidrug-resistance phenotype with megestrol acetate” (Cancer Chemother Pharmacol, 1994).

How the values were obtained:
[1] = biological target: T1, ATP-dependent translocase ABCB1 (Homo sapiens, UniProt P08183); test: TP_TRANSPORTER: increase in Doxorubicin intracellular accumulation (Doxorubicin: […], Megestrol acetate: 50 uM) in HCT-116/VM46 cells, flow cytometry; format: functional, cell-based; conditions: hct-116/vm46, 50 µM
[2] = biological target: T1, ATP-dependent translocase ABCB1; test: TP_TRANSPORTER: increase in Doxorubicin intracellular accumulation (Doxorubicin: […], Megestrol acetate: 25 uM) in MCF-7/ADR cells, flow cytometry; format: functional, cell-based; conditions: nci/adr-res

T1 sequence (P08183 whole entry): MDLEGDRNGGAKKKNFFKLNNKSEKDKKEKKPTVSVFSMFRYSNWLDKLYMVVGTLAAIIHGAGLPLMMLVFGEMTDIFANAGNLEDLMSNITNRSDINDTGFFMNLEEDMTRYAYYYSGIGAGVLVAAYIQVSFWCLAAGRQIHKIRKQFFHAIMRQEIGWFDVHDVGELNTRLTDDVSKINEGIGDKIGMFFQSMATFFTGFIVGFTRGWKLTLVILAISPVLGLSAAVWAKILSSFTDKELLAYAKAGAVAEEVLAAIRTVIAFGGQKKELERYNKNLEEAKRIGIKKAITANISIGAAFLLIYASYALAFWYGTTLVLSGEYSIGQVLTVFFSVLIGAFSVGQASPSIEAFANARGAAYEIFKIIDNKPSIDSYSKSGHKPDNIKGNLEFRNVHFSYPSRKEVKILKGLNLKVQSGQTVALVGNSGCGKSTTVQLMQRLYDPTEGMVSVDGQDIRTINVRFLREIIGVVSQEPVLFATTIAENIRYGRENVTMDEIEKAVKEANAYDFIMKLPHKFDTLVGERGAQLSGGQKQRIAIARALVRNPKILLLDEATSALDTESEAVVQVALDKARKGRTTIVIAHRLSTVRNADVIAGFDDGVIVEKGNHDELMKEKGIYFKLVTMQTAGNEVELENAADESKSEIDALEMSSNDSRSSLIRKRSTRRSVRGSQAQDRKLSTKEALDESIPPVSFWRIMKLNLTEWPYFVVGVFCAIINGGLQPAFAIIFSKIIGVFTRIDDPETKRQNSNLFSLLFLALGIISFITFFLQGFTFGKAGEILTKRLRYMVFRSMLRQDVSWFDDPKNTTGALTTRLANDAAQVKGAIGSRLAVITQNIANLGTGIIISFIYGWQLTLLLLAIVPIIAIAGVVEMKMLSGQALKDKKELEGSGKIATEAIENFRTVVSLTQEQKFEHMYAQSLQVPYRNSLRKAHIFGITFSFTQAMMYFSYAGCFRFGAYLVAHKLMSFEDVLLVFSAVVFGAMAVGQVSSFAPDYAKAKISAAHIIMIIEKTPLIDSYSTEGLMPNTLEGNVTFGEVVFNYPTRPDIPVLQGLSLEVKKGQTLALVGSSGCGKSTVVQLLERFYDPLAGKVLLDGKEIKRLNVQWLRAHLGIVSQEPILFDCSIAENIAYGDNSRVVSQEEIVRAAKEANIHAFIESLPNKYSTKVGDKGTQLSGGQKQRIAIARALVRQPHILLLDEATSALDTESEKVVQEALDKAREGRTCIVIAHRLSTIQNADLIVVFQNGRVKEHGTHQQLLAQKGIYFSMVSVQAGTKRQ

Activity [1]: inhibitor [+]
Activity [2]: inhibitor [+]
SMILES: CC(=O)O[C@]1(C(C)=O)CC[C@H]2[C@@H]3C=C(C)C4=CC(=O)CC[C@]4(C)[C@H]3CC[C@@]21C [MEGESTROL ACETATE]
